Measured values as given in PubChem BioAssay AID1963964 (Molecular Pharmacology Branch, DTP, NCI, 2024).

Tested on: 997726-040-R-J2-PDC tumor spheroids, viability
Experiment: Anticancer human tumor 997726-040-R-J2-PDC patient-derived squamous cell lung carcinoma cell line growth inhibition [PI3K]
Conditions: spheroids with HUVEC and MSC; for IC50: curve of first compound; for viability, T/C: stronger effect = lower value
Summary of the method: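 We assembled tumor spheroids that included a stromal compartment of HUVEC and MSCs, then exposed them to targeted agents alone and together with PI3K pathway inhibitors. Concentration series descended by half-log from clinically achievable Cmax levels. Viability served as the endpoint.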

[1] = second compound 0.0316 µM, first compound 0.0316 µM
[2] = second compound 0.0316 µM, first compound 0.1 µM
[3] = second compound 0.0316 µM, first compound 0.316 µM
[4] = second compound 0.0316 µM, first compound 1 µM
[5] = second compound 0.0316 µM, first compound 3.16 µM
[6] = second compound 0.0316 µM, first compound 10 µM
[7] = second compound 0.1 µM, first compound 0.0316 µM
[8] = second compound 0.1 µM, first compound 0.1 µM
[9] = second compound 0.1 µM, first compound 0.316 µM
[10] = second compound 0.1 µM, first compound 1 µM
[11] = second compound 0.1 µM, first compound 3.16 µM
[12] = second compound 0.1 µM, first compound 10 µM
[13] = second compound 0.316 µM, first compound 0.0316 µM
[14] = second compound 0.316 µM, first compound 0.1 µM
[15] = second compound 0.316 µM, first compound 0.316 µM
[16] = second compound 0.316 µM, first compound 1 µM
[17] = second compound 0.316 µM, first compound 3.16 µM
[18] = second compound 0.316 µM, first compound 10 µM
[19] = second compound 1 µM, first compound 0.0316 µM
[20] = second compound 1 µM, first compound 0.1 µM
[21] = second compound 1 µM, first compound 0.316 µM
[22] = second compound 1 µM, first compound 1 µM
[23] = second compound 1 µM, first compound 3.16 µM
[24] = second compound 1 µM, first compound 10 µM
[25] = second compound 3.16 µM, first compound 0.0316 µM
[26] = second compound 3.16 µM, first compound 0.1 µM
[27] = second compound 3.16 µM, first compound 0.316 µM
[28] = second compound 3.16 µM, first compound 1 µM
[29] = second compound 3.16 µM, first compound 3.16 µM
[30] = second compound 3.16 µM, first compound 10 µM
[31] = second compound 10 µM, first compound 0.0316 µM
[32] = second compound 10 µM, first compound 0.1 µM
[33] = second compound 10 µM, first compound 0.316 µM
[34] = second compound 10 µM, first compound 1 µM
[35] = second compound 10 µM, first compound 3.16 µM
[36] = second compound 10 µM, first compound 10 µM
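Further: spheroids exposed to compounds for seven days before readout.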

In the case of `CC(Cn1ccc(-c2ccc(C#N)c(Cl)c2)n1)NC(=O)c1cc(C(C)O)[nH]n1` (centres undefined) + CC(Nc1ncnc2nc[nH]c12)c1cc2cccc(Cl)c2c(=O)n1-c1ccccc1, the IC50 (second compound 0.0316 µM) is reported as > 10 µM, the IC50 (second compound 0.1 µM) is reported as > 10 µM and the IC50 (second compound 0.316 µM) is reported as > 10 µM. For the same molecule, the IC50 (second compound 1 µM) was > 10 µM, the IC50 (second compound 3.16 µM) was > 10 µM and the IC50 (second compound 10 µM) was > 10 µM. It also gave a viability, T/C [1] of 100%, a viability, T/C [2] of 88.5% and a viability, T/C [3] of 104%. For the same molecule, the viability, T/C [4] was 109%, the viability, T/C [5] was 100% and the viability, T/C [6] was 105%. It also gave a viability, T/C [7] of 108%, a viability, T/C [8] of 100% and a viability, T/C [9] of 109%. The viability, T/C [10] was 96.4%, the viability, T/C [11] was 116% and the viability, T/C [12] was 108%. For the same molecule, the viability, T/C [13] was 94.3%, the viability, T/C [14] was 92.1% and the viability, T/C [15] was 95.1%. The viability, T/C [16] was 92.6%, the viability, T/C [17] was 101% and the viability, T/C [18] was 98.2%. It also gave a viability, T/C [19] of 93.9%, a viability, T/C [20] of 88.4% and a viability, T/C [21] of 91.6%. For the same molecule, the viability, T/C [22] was 87.2%, the viability, T/C [23] was 91.5% and the viability, T/C [24] was 88.2%. For the same molecule, the viability, T/C [25] was 78.1%, the viability, T/C [26] was 70.5% and the viability, T/C [27] was 71.2%. The viability, T/C [28] was 68.9%, the viability, T/C [29] was 80.9% and the viability, T/C [30] was 72.5%. The viability, T/C [31] was 51.5%, the viability, T/C [32] was 56.2% and the viability, T/C [33] was 48.9%. For the same molecule, the viability, T/C [34] was 53.7%, the viability, T/C [35] was 51.5% and the viability, T/C [36] was 52.8%.
`CC1(C)CCC(Nc2ncc(C(F)(F)F)c(-c3c[nH]c4c(P(C)(C)=O)c(C#N)ccc34)n2)CN1` (centres undefined) + CC(Nc1ncnc2nc[nH]c12)c1cc2cccc(Cl)c2c(=O)n1-c1ccccc1 gave an IC50 (second compound 0.0316 µM) of 0.496 µM, an IC50 (second compound 0.1 µM) of 3.51 µM and an IC50 (second compound 0.316 µM) of 3.3 µM. For the same molecule, the IC50 (second compound 1 µM) was 0.0316 µM, the IC50 (second compound 3.16 µM) was < 0.0316 µM and the IC50 (second compound 10 µM) was < 0.0316 µM. The viability, T/C [1] was 48.9%, the viability, T/C [2] was 45.7% and the viability, T/C [3] was 50%. It also gave a viability, T/C [4] of 59.5%, a viability, T/C [5] of 65.9% and a viability, T/C [6] of 29.6%. It also gave a viability, T/C [7] of 53.8%, a viability, T/C [8] of 51.6% and a viability, T/C [9] of 49.3%. The viability, T/C [10] was 48.5%, the viability, T/C [11] was 55.5% and the viability, T/C [12] was 33%. The viability, T/C [13] was 52.3%, the viability, T/C [14] was 47.6% and the viability, T/C [15] was 45.3%. It also gave a viability, T/C [16] of 53.3%, a viability, T/C [17] of 56% and a viability, T/C [18] of 26.5%. It also gave a viability, T/C [19] of 49.2%, a viability, T/C [20] of 46.2% and a viability, T/C [21] of 45.2%. The viability, T/C [22] was 44.7%, the viability, T/C [23] was 52.2% and the viability, T/C [24] was 27.3%. For the same molecule, the viability, T/C [25] was 42.1%, the viability, T/C [26] was 40.7% and the viability, T/C [27] was 36%. For the same molecule, the viability, T/C [28] was 39.3%, the viability, T/C [29] was 53.8% and the viability, T/C [30] was 21.7%. It also gave a viability, T/C [31] of 32%, a viability, T/C [32] of 29.2% and a viability, T/C [33] of 31.5%. For the same molecule, the viability, T/C [34] was 37.7%, the viability, T/C [35] was 39.8% and the viability, T/C [36] was 14.1%.
